Measurements taken from ChEMBL document CHEMBL1201862, “PubChem BioAssay data set” (2004).
Active and inactive are the calls of the source.

Key:
[1] = biological target: Voltage-dependent T-type calcium channel subunit alpha-1H (Homo sapiens, UniProt O95180); test: Cav3.2 T-type channel inhibitors, synthesized analogs, SAR follow-up, cell-based, synthetic library set 2, HEK293 HH8, Fluo-4 (AID 493023); assay type: functional
[2] = Luminescence Cell-Based Dose Response HTS to Identify Inhibitors of Luciferase Translation or Activity in H4-C Neuroglioblastoma Cells. [Related pubchem assays: 1813 (Primary HTS), 1827 (Project Summary)]; assay type: functional
[3] = Luminescence Cell-Based Dose Response HTS to Identify Activators of Luciferase Translation or Activity in H4-C Neuroglioblastoma Cells. [Related pubchem assays: 1829 (Project Summary), 1814 (Primary HTS)]; assay type: functional
[4] = inhibitors of firefly luciferase expression or activity, dose response, H4 neuroglioma cells, luminescence (AID 1990); assay type: functional, cell-based
[5] = luciferase reporter signal reduction – luminescence, H4-C neuroglioblastoma cells, dose response (AID 2458); assay type: functional, cell-based;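 also: H4 neuroglioblastoma cells stably carrying a luciferase reporter gene fusion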
[6] = Luminescence Cell-Based Dose Retest to Confirm Activators of 5'UTR Stem-Loop Driven Alpha-Synuclein mRNA Translation in H4 Neuroglioblastoma Cells. [Related pubchem assays (depositor defined):AID1813, AID1829]; assay type: functional
[7] = Luminescence Cell-Based Dose Response HTS to Identify Activators of 5'UTR Stem-Loop Driven Prion Protein mRNA Translation in H4-C Neuroglioblastoma Cells. [Related pubchem assays: 1829 (Project Summary), 1814 (Primary HTS)]; assay type: functional
[8] = Luminescence Cell-Based Dose HTS Response to Identify Inhibitors of 5'UTR Stem-Loop Driven Prion Protein mRNA Translation in H4-C Neuroglioblastoma Cells. [Related pubchem assays (depositor defined):AID1814, AID1827]; assay type: functional
BJ [9] = test: cytotoxicity toward BJ-TERT fibroblasts, dose response, cell-based, RAS-independent, luminescence (AID 1933); assay type: functional; conditions: Homo sapiens
cells [10] = assay type: functional, cell-based
[11] = inhibitors of SNCA 5'UTR-driven reporter translation, confirmation, H4 neuroglioma cells, luminescence (AID 1988); assay type: functional, cell-based
BJ [12] = test: cells; assay type: functional, cell-based; conditions: Homo sapiens
[13] = Luminescence Cell-Based Dose Confirmation HTS to Identify Inhibitors of 5'UTR Stem-Loop Driven Alpha-Synuclein mRNA Translation in H4 Neuroglioblastoma Cells. [Related pubchem assays: 1827 (Project Summary), 1813 (Primary HTS)]; assay type: functional
BJ [14] = test: cytotoxicity toward BJ-TERT-LT-ST fibroblasts, dose response, cell-based, RAS-independent, luminescence (AID 1935); assay type: functional; conditions: Homo sapiens;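 also: BJ fibroblasts immortalized with TERT plus LT and ST oncogenes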
[15] = cytotoxicity toward DRD oncogenic fibroblasts, dose response, cell-based, non-viral oncogenic, luminescence (AID 1934); assay type: functional; conditions: Homo sapiens
[16] = inhibitors of SNCA 5'UTR-driven translation, confirmation, luminescence, H4 neuroglioblastoma cells, dose confirmation (AID 2454); assay type: functional, cell-based;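 also: H4 neuroglioblastoma cells carrying an alpha-synuclein 5'UTR luciferase reporter; potency for inhibition of the luciferase signal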
[17] = biological target: T1, Delta-type opioid receptor (Homo sapiens, UniProt P41143); test: HTS Image-Based Screen for Antagonists of the DOR Receptor. [Related pubchem assays (depositor defined):AID1777, AID1785, AID1786, AID2133]; assay type: functional
T1 sequence (P41143 whole entry): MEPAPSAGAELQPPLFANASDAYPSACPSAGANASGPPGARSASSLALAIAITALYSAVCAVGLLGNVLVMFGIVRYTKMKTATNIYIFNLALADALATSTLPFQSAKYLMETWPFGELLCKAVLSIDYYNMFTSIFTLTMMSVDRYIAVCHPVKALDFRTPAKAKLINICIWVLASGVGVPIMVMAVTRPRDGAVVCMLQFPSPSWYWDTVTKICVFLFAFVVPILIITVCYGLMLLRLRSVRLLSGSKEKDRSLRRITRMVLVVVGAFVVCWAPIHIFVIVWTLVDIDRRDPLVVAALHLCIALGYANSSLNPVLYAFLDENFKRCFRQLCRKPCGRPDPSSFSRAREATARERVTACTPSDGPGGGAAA

Mu-type opioid receptor = Mu-type opioid receptor (Homo sapiens, UniProt P35372); test: HTS Image-Based Screen for Agonists of the MOR Receptor. [Related pubchem assays (depositor defined):AID1777, AID1785, AID1786, AID2133]; assay type: functional;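 also: imaging of beta-arrestin GFP recruitment into spots after receptor activation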
Chain of Mu-type opioid receptor (P35372 whole entry): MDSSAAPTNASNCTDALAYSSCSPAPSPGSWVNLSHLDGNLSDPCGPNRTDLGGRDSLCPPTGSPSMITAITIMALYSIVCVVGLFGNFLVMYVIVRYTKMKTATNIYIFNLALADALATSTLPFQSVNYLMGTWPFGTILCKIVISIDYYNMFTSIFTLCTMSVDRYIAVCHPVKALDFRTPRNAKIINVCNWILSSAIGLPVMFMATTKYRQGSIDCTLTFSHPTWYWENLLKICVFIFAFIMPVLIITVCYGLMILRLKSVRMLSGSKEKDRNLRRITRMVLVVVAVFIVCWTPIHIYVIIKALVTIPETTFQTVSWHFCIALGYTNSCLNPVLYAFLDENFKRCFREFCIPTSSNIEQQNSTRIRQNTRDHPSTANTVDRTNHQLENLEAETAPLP

[18] = biological target: T1, Delta-type opioid receptor; test: HTS Image-Based Screen for Agonists of the DOR Receptor. [Related pubchem assays (depositor defined):AID1777, AID1786, AID2133]; assay type: functional
[19] = Luminescence Cell-Based Dose Response HTS to Identify Inhibitors of 5'UTR Stem-Loop Driven Prion Protein mRNA Translation in H4 Neuroglioblastoma Cells. [Related pubchem assays: 1827 (Project Summary), 1813 (Primary HTS)]; assay type: functional
[20] = biological target: T2, Kappa-type opioid receptor (Homo sapiens, UniProt P41145); assay type: functional
T2 sequence (P41145 whole entry): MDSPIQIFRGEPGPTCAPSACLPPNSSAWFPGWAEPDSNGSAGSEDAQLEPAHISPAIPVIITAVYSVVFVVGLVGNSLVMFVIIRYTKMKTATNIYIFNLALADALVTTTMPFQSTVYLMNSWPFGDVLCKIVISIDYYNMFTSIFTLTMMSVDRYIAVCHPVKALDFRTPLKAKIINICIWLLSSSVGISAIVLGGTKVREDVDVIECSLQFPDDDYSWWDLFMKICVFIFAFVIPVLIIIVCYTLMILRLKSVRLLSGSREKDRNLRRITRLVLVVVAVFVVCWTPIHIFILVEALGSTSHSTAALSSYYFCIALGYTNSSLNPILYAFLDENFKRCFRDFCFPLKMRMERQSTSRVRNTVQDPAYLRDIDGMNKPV

[21] = biological target: T2, Kappa-type opioid receptor; assay type: functional; remark: listed apart in the source
[22] = THP-1 cell cytotoxicity, dose response, cytotoxicity control for non-replicating M. tuberculosis project (AID 489025); assay type: functional
[23] = HepG2 cell cytotoxicity, dose response, cytotoxicity control for non-replicating M. tuberculosis project (AID 489018); assay type: functional; conditions: Mycobacterium tuberculosis
[24] = Vero E6 cell cytotoxicity, dose response, cytotoxicity control for non-replicating M. tuberculosis project, secondary assay (AID 492998); assay type: functional, VeroE6; conditions: Vero C1008
cells [25] = assay type: functional
INS1 = test: beta cell apoptosis inhibitors, cytokine rescue, dose response, luminescence, retest (AID 449756); assay type: functional, cell-based; conditions: Rattus norvegicus;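 also: cell death triggered by IL-1 beta plus TNF-alpha plus IFN-gamma mixture; protective hits raise ATP signal compared with cytokine alone wells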
[26] = biological target: 26S proteasome non-ATPase regulatory subunit 14 (Homo sapiens, UniProt O00487); test: inhibition of proteasome subunit RPN11 – biochemical, fluorescence polarization, uHTS hits, confirmation (AID 602368); assay type: functional
Chain of 26S proteasome non-ATPase regulatory subunit 14 (O00487 whole entry): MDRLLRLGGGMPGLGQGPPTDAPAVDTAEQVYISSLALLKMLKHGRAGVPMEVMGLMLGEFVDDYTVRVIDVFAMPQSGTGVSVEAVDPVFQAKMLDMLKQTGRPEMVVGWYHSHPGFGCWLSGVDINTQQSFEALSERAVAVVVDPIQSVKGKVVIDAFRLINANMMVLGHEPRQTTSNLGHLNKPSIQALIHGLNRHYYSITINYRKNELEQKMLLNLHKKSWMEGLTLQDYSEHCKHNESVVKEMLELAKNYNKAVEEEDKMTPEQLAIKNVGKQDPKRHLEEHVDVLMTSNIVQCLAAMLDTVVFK

[27] = biological target: 72 kDa type IV collagenase (Homo sapiens, UniProt P08253); test: Dose Response validation of uHTS RPN11 inhibitor hits using a MMP-2 Fluorescence assay.; assay type: functional
Chain of 72 kDa type IV collagenase (P08253 whole entry): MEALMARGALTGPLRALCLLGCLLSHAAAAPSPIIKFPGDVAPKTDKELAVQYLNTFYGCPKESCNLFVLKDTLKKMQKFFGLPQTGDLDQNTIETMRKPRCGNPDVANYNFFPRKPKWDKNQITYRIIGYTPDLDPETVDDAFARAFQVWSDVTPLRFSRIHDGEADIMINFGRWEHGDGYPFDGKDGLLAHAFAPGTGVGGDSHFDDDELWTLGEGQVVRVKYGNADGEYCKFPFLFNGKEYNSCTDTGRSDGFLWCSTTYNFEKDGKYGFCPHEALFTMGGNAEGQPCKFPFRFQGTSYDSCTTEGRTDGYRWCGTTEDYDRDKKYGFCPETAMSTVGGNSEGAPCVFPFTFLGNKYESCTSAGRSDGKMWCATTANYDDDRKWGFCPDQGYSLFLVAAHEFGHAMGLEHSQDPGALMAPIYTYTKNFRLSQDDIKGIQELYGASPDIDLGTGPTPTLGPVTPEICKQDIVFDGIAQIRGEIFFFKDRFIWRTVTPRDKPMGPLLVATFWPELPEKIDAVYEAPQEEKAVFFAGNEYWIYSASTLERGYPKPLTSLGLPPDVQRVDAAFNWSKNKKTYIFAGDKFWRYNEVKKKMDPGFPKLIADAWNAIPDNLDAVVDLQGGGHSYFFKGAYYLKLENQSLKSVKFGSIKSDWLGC

Prothrombin = Prothrombin (Bos taurus, UniProt P00735); test: thrombin inhibition, dose response, biochemical, fluorescence polarization, uHTS hits (AID 602369); assay type: functional
[28] = MDA-MB-231 cell growth inhibition, dose response, cytotoxicity control for RAD54 inhibitor project, CellTiter-Glo luminescence, cherry-pick (AID 651692); assay type: functional, cell-based
[29] = biological target: DNA repair and recombination protein RAD54-like (Homo sapiens, UniProt Q92698); test: inhibitors of human RAD54 branch migration, confirmation, biochemical, fluorescence, cherry-picked samples, dose series (AID 651657); assay type: functional
[30] = biological target: T3, Mannose-6-phosphate isomerase (Homo sapiens, UniProt P34949); test: PMI enzyme inhibitors, confirmation, biochemical, fluorescence intensity (AID 1535)
T3 sequence (P34949 whole entry): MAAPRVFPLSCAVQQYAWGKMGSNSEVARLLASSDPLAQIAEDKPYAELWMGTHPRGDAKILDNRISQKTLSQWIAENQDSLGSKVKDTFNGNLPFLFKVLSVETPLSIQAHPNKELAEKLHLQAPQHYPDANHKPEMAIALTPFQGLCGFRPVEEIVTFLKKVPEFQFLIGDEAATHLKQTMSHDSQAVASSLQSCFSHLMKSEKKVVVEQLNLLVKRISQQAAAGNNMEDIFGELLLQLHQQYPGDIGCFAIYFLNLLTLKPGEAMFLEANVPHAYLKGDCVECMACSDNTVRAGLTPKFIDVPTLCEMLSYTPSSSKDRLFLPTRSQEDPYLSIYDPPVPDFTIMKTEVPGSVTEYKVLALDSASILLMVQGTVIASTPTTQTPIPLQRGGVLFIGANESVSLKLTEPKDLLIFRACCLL

Phosphomannomutase 2 = Phosphomannomutase 2 (Homo sapiens, UniProt O15305); test: Counter screen SAR assay for PMM2 inhibitors via a fluorescence intensity assay. [Related pubchem assays (depositor defined):AID1545, AID1574]
Chain of Phosphomannomutase 2 (O15305 whole entry): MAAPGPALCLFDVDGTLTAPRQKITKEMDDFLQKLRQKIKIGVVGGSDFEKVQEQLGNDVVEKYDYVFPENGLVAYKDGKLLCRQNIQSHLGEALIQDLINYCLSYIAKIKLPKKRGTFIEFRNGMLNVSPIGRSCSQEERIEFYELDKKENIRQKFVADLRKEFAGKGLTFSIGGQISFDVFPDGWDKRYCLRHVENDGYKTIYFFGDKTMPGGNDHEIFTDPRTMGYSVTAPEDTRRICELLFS

[31] = biological target: Intestinal-type alkaline phosphatase (Mus musculus, UniProt P24822); test: PubChem AID 488785; assay type: functional
[32] = biological target: T4, Alkaline phosphatase, tissue-nonspecific isozyme (Homo sapiens, UniProt P05186); test: TNAP enzyme inhibition by screening hits, dose response, selectivity assay for mouse IAP inhibitor project, biochemical, human TNAP, uHTS hits (AID 488906); assay type: functional
T4 sequence (P05186 whole entry): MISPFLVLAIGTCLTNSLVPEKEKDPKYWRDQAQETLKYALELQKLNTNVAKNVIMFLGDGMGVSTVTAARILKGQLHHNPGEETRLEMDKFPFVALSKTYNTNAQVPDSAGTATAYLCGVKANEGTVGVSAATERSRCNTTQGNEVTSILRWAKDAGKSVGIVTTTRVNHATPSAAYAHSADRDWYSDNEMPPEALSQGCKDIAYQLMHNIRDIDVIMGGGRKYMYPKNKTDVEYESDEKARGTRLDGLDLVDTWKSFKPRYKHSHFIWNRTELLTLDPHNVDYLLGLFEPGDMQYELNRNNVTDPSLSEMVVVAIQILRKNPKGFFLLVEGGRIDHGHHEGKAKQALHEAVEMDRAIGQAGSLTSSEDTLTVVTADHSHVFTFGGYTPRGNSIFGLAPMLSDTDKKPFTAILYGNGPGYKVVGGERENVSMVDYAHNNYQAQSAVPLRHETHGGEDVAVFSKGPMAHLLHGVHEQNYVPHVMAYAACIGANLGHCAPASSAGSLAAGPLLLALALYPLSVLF

[33] = biological target: Intestinal-type alkaline phosphatase (Homo sapiens, UniProt P09923); test: inhibition of human intestinal alkaline phosphatase – biochemical, dose response (AID 488876); assay type: functional
[34] = biological target: T5, Tyrosine-protein phosphatase non-receptor type 7 (Homo sapiens, UniProt P35236); assay type: functional
T5 sequence (P35236 whole entry): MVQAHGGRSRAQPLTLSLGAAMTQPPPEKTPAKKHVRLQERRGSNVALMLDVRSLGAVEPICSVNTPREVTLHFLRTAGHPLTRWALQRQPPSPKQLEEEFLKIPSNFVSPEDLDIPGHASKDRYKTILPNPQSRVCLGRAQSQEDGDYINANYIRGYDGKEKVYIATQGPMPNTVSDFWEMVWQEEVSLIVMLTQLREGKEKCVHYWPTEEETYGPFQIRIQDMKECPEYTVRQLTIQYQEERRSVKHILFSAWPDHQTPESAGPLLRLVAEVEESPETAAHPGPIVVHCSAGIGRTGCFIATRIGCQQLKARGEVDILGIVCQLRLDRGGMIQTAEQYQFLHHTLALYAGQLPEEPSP

[35] = biological target: T6, Tyrosine-protein phosphatase non-receptor type 22 (Homo sapiens, UniProt Q9Y2R2); assay type: functional
T6 sequence (Q9Y2R2 whole entry): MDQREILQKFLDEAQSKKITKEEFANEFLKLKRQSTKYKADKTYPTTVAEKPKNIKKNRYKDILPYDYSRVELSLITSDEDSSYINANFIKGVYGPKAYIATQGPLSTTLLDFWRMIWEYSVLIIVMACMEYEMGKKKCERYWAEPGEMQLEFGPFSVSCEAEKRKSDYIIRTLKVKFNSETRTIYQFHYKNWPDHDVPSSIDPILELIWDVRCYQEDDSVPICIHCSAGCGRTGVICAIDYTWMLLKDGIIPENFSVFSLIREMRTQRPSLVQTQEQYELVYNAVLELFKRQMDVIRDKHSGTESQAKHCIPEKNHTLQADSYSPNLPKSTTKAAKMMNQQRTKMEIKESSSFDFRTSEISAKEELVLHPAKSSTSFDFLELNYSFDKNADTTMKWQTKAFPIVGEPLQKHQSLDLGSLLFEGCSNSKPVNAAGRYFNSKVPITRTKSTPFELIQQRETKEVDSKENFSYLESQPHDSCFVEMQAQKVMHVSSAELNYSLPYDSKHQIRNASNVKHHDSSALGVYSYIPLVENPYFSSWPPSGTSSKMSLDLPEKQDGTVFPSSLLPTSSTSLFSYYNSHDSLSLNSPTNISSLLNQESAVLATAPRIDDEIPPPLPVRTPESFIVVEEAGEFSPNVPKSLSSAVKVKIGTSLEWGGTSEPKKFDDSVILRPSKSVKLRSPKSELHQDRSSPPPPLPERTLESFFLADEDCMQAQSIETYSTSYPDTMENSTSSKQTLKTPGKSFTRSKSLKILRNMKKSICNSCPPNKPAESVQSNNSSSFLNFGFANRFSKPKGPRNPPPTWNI

[36] = biological target: T6, Tyrosine-protein phosphatase non-receptor type 22; assay type: functional; remark: listed apart in the source
[37] = biological target: Lysine-specific demethylase 4C (Homo sapiens, UniProt Q9H3R0); test: GASC-1 (JMJD2C) histone demethylase inhibitors, dose response, biochemical, DELFIA europium, cherry-picked samples (AID 488835); assay type: functional

Chain of Voltage-dependent T-type calcium channel subunit alpha-1H (O95180 whole entry): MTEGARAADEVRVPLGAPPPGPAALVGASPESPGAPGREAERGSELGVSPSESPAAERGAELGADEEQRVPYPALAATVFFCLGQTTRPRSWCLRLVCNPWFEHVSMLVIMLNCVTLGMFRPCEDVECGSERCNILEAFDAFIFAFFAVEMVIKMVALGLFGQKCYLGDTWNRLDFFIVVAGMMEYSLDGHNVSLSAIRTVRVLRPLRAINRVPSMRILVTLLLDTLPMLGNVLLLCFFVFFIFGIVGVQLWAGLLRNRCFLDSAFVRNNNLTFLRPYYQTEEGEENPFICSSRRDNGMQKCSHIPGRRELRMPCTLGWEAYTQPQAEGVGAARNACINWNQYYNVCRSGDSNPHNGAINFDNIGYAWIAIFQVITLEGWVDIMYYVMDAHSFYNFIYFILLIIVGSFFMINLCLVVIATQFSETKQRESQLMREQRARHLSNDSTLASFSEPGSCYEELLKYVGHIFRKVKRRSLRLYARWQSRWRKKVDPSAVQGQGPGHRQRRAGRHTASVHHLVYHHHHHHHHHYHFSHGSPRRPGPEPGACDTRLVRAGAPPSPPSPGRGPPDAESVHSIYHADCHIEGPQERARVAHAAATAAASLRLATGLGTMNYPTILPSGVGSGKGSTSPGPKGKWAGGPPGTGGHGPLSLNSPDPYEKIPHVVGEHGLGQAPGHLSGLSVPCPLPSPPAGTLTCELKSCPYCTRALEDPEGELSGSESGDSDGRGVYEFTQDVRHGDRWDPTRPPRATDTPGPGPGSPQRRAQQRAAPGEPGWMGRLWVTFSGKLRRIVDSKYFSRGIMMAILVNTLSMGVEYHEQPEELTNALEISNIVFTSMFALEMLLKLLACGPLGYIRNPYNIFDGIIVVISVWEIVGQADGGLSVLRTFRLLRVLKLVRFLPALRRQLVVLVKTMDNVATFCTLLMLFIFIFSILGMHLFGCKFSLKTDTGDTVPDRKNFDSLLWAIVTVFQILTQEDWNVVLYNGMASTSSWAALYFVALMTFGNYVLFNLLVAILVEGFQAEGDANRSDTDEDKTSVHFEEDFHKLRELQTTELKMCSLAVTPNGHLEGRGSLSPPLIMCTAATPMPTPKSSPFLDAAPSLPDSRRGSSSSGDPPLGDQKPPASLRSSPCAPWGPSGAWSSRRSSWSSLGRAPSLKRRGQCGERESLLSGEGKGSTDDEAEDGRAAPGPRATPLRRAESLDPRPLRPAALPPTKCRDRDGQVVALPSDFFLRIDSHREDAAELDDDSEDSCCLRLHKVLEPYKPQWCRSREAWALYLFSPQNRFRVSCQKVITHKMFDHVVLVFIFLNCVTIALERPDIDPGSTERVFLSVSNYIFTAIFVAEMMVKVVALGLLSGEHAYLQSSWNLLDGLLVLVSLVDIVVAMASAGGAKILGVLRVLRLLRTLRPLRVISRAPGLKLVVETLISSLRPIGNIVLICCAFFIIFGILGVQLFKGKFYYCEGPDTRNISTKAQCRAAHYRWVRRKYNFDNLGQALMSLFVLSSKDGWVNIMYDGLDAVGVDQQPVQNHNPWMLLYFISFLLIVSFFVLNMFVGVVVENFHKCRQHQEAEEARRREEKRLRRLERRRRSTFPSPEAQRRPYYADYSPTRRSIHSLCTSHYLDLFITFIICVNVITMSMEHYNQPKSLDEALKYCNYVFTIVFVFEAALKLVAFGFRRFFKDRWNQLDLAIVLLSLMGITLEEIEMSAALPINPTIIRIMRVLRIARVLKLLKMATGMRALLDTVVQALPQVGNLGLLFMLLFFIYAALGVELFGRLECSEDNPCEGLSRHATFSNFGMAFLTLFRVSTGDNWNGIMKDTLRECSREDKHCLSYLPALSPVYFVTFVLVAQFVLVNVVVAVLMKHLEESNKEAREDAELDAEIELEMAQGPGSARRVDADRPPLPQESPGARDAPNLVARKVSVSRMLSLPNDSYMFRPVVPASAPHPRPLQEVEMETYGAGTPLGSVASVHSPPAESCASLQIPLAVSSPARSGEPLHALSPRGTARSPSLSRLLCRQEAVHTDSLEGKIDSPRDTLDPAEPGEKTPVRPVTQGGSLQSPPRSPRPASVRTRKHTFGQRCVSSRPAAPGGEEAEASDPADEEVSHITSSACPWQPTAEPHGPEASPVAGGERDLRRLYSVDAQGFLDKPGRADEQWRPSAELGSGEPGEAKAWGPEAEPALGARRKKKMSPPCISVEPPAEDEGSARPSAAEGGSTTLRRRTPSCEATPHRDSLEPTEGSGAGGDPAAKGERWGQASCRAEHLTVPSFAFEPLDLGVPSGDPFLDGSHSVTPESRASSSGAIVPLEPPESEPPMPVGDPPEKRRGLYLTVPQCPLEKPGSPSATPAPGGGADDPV

CC(C)(C)CCN1CCC[C@H](NC(=O)COc2ccccc2F)C1
EC50 [1]: 10 µM (active)

O=C(c1ccc(C[S+]([O-])c2ccccc2Cl)o1)N1CCN(c2ccccc2)CC1 (configuration not stated)
EC50 [2]: 1.46 µM (active)
EC50 [3]: 1.46 µM (inconclusive)
EC50 [4]: 8.01 µM (active)
EC50 [5]: 1.16 µM (active)
EC50 [6]: 0.811 µM (inconclusive)
EC50 [7]: 0.464 µM (inconclusive)
EC50 [8]: 0.464 µM (active)
EC50 (BJ [9]): 1.18 µM (active)
EC50 (cells [10]): > 12 µM (not active)
EC50 [11]: < 0.1 µM (active)
EC50 (BJ [12]): 25.9 µM (active)
EC50 [13]: 0.811 µM (active)
EC50 (BJ [14]): 1.22 µM (active)
EC50 [15]: 0.614 µM (active)
EC50 [16]: 2.83 µM (active)

COc1cc2ccccc2cc1C(=O)Nc1sc2c(c1C(N)=O)CCN(C(C)C)C2
IC50 [17]: > 32 µM (inactive)
EC50 [4]: > 120 µM (not active)
EC50 (Mu-type opioid receptor): > 32 µM (inactive)
EC50 [18]: > 32 µM (inactive)
EC50 (BJ [9]): 6.33 µM (active)
EC50 [19]: > 120 µM (not active)
EC50 [11]: > 120 µM (not active)
EC50 (BJ [12]): 13.6 µM (active)
EC50 [20]: 2 µM
EC50 [21]: 14.8 µM
EC50 (BJ [14]): 6.85 µM (inconclusive)
EC50 [15]: 7.16 µM (active)
CC50 [22]: 11.6 µM (active)
CC50 [23]: 10.8 µM (active)
CC50 [24]: 4.6 µM (active)
IC50 (cells [25]): 11.9 µM (active)
AC50 (INS1): 7.78 µM (active)
IC50 [26]: 18.1 µM (active)
IC50 [27]: > 100 µM (inactive)
IC50 (Prothrombin): 15.1 µM (active)
AC50 [28]: 16 µM (active)
AC50 [29]: 9.33 µM (active)

Cc1ccc(/N=c2\ssnc2Cl)c([N+](=O)[O-])c1
IC50 [30]: 4.44 µM (active)
IC50 (Phosphomannomutase 2): 96.2 µM (active)

O=C(CCN1C(=O)/C(=C/c2ccco2)SC1=S)Nc1ccc(O)cc1C(=O)O
IC50 [31]: 1.51 µM (active)
IC50 [32]: 19.6 µM (active)
IC50 [33]: > 100 µM (inactive)

Cc1cccnc1-n1c(C)nc2ccccc2c1=O
IC50 [34]: > 79.4 µM (inactive)
IC50 [35]: > 79.4 µM (inactive)
IC50 [36]: > 79.4 µM (inactive)

CCOC(=O)C1=CC(=C2C(=O)N(CC)C(=S)N(CC)C2=O)c2ccccc2O1
AC50 [37]: 12.2 µM (active)
